{"source": "patent US20200029555A1", "about": "“BIODEGRADABLE HYDROGEL TO DELIVER AQUEOUS BAIT TO CONTROL PEST ANTS” (priority 2016, published 2020)", "origin": "cited, not measured here", "key": {"[1]": {"system": "laboratory colonies of queens and workers", "settings": "liquid baits 0.00001-0.005% thiamethoxam; 14-day period"}, "[2]": {"system": "Argentine ants", "settings": "0.001% liquid thiamethoxam"}}}
{"smiles": "CN1COCN(Cc2cnc(Cl)s2)/C1=N\\[N+](=O)[O-]", "note": "[thiamethoxam]", "values": [{"measurement": "mortality of laboratory colonies of queens and workers", "setting": "[1]", "value": "complete mortality"}, {"measurement": "reduction of Argentine ants in urban settings", "setting": "[2]", "value": "successfully reduced"}]}
